Tested on: isolated rabbit saphenous vein
Test: 5HT1-like agonist activity on the isolated rabbit saphenous vein preparation (contraction)
Format: cell-based
Settings: pD2 = -log EC50 of contraction, after phenoxybenzamine 0.3 µM and pargyline 500 µM, 37°C; for EC50: Oryctolagus cuniculus
Experimental: 5HT1-like agonist activity of the synthesis products on the isolated rabbit saphenous vein preparation.
This study was conducted using the method described by Van Heuven-Nolsen (Van Heuven-Nolsen et al., Eur. J. Pharmacol. 191 (3); 375-382; 1990) and male New Zealand rabbits were used. The animals were sacrificed by exposure to excess CO₂. Thereafter the saphenous vein of each rear extremity was excised. 5 mm long segments were obtained from each vein. Each segment was placed, using appropriate supports, in an organ bath containing a Krebs-Henseleit solution aerated with carbogen and thermostatically controlled to 37°C. These conditions were held for 25 minutes, after which the preparation was subjected to a traction of 2 g at the same time as phenoxybenzamine (0.3 µM) and pargyline (500 µM) were added to the organ bath over 30 minutes. The phenoxybenzamine is an irreversible antagonist of the α-adrenoreceptors, whilst pargyline is a selective monoaminooxidase (MAO) inhibitor. At the end of these 30 minutes, successive washings were performed with Krebs solution every 7 minutes, for a further 30 minutes to remove the excess phenoxybenzamine. Thereafter, the preparation was subjected to an increasing contraction by the addition of cumulative doses of sumatriptan (10⁻⁹ at 3x10⁻⁵ M), followed by washing and allowing to rest for 30 minutes until the segment returns to its basal tension. At the end of this time, a further cumulative curve is plotted with the product to be studied. The pD2 (-log EC₅₀, the product concentration producing 50% of its maximum contraction) and the Emax (maximum contraction achieved) were calculated.

Compound | EC50 [nM] | RABBIT SAPHENOUS VEIN pD2
CNc1ncnc(N2CCN(CCCc3c[nH]c4ccc(CS(=O)(=O)NC)cc34)CC2)c1OC [Example 64, C-(3-{3-[4-(6-methylamino-5-methoxy-pyrimidin-4-yl)-piperazin-1-yl]-propyl}-1H-indol-5-yl)-N-methyl-methanesulfonamide] | 105 | 
C-(3-{3-[3-(5,6-dimethoxy-pyrimidin-4-yl)-piperazin-1-yl]-1-methyl-1H-indol-5-yl)-N-methyl-methanesulfonamide [Example 78] |  | 6.80±0.56
CNS(=O)(=O)Cc1ccc2[nH]cc(CCN(C)C)c2c1 [SUMATRIPTAN, sumatriptan, reference compound] | 347 | 
CNS(=O)(=O)Cc1ccc2[nH]cc(CCCN(C)CCN(C)c3ncnc(OC)c3OC)c2c1 [Example 62, C-{3-[3-({2-[(5,6-dimethoxy-pyrimidin-4-yl)-methyl-amino]-ethyl}-methyl-amino)-propyl]-1H-indol-5-yl}-N-methyl-methanesulfonamide] | 120 | 
COc1ccc2[nH]cc(CCCN3CCN(c4ncnc(OC)c4OC)CC3)c2c1 [Example 80, 3-{3-[4-(5,6-dimethoxy-pyrimidin-4-yl)-piperazin-1-yl]-propyl}-5-methoxy-1H-indole] | 1.38 | 
COc1cncnc1N1CCN(CC=Cc2c[nH]c3ccc(F)cc23)CC1 [Example 83, 5-fluoro-3-{3-[4-(5-methoxy-pyrimidin-4-yl)-piperazin-1-yl]-propenyl}-1H-indole] | 724 | 
COc1cnc(C)nc1N1CCN(CCCc2c[nH]c3ccc(F)cc23)CC1 [Example 70, 5-fluoro-3-{3-[4-(2-methyl-5-methoxy-pyrimidin-4-yl)-piperazin-1-yl]-propyl}-1H-indole] | 324 | 
CNS(=O)(=O)Cc1ccc2[nH]cc(CCCN3CCN(c4ncncc4-c4ccccc4)CC3)c2c1 [Example 87, C-(3-{3-[4-(5-phenyl-pyrimidin-4-yl)-piperazin-1-yl]-propyl}-1H-indol-5-yl)-N-methylmethanesulfonamide] | 282 | 
CNS(=O)(=O)Cc1ccc2[nH]cc(CCCNCCN(C)c3ncncc3OC)c2c1 [Example 59, C-[3-(3-{2-[5-methoxy-pyrimidin-4-yl)-methylaminolethylamino}-propyl)-1H-indol-5-yl]-N-methyl-methanesulfonamide.] |  | 6.64±0.24
CNS(=O)(=O)Cc1ccc2[nH]cc(CCCNC3CCN(c4ncnc(OC)c4OC)C3)c2c1 (stereo not shown) [Example 56, C-(3-{3-[1-(5,6-dimethoxy-pyrimidin-4-yl)-pyrrolidin-3-ylamino]-propyl}-1H-indol-5-yl)-N-methyl-methanesulfonamide] | 457 | 
NCCc1c[nH]c2ccc(O)cc12 [SEROTONIN, reference compound] | 49 | 
CNS(=O)(=O)Cc1ccc2[nH]cc(CCN3CCN(c4ncncc4OC)CC3)c2c1 [Example 85, C-(3-{2-[4-(5-methoxy-pyrimidin-4-yl)-piperazin-1-yl]-ethyl}-1H-indol-5-yl)-N-methyl-methanesulfonamide] | 2630 | 
CNS(=O)(=O)Cc1ccc2[nH]cc(CCCN3CCN(c4ncnc(OC)c4OC)CC3)c2c1 [Example 51, C-(3-{3-[4-(5,6-dimethoxy-pyrimidin-4-yl)-piperazin-1-yl]-propyl}-1H-indol-5-yl)-N-methyl-methanesulfonamide] | 7.24 | 
